Test results taken from ChEMBL document CHEMBL1201862, “PubChem BioAssay data set” (2004).
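Method: 48-hour compound exposure of cells in 96-well plates, five concentrations, linear interpolation of endpoints. At the GI50, growth is halved.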 The source made the active and inactive calls. Rule as the data show it: active = GI50 up to about 1.1 µM and inactive = higher.

How the values were obtained:
Test in all cases: NCI anticancer screen, dose series, 48 h
SF-268 = tested on: SF-268
EKVX = tested on: EKVX
MDA-MB-231 = tested on: MDA-MB-231
OVCAR-5 = tested on: OVCAR-5
SK-OV-3 = tested on: SK-OV-3
UACC-62 = tested on: UACC-62
UO-31 = tested on: UO-31
SF-539 = tested on: SF-539
NCI/ADR-RES = tested on: NCI/ADR-RES
MOLT-4 = tested on: MOLT-4
HCT-116 = tested on: HCT-116
NCI-H226 = tested on: NCI-H226
ACHN = tested on: ACHN
UACC-257 = tested on: UACC-257
SNB-75 = tested on: SNB-75
OVCAR-8 = tested on: OVCAR-8
SK-MEL-2 = tested on: SK-MEL-2
RXF 393 = tested on: RXF 393
SW-620 = tested on: SW-620
NCI-H23 = tested on: NCI-H23
A549 = tested on: A549
SF-295 = tested on: SF-295
RPMI-8226 = tested on: RPMI-8226
K562 = tested on: K562
CAKI-1 = tested on: CAKI-1
IGROV-1 = tested on: IGROV-1
T47D = tested on: T47D
A498 = tested on: A498
SR = tested on: SR
786-0 = tested on: 786-0
Malme-3M = tested on: Malme-3M
COLO 205 = tested on: COLO 205
HT-29 = tested on: HT-29
M14 = tested on: M14
HOP-92 = tested on: HOP-92
SK-MEL-5 = tested on: SK-MEL-5
SNB-19 = tested on: SNB-19
LOX IMVI = tested on: LOX IMVI
PC-3 = tested on: PC-3
TK-10 = tested on: TK-10
U-251 = tested on: U-251
KM12 = tested on: KM12
CCRF-CEM = tested on: CCRF-CEM
MCF7 = tested on: MCF7
NCI-H522 = tested on: NCI-H522
NCI-H460 = tested on: NCI-H460
Hs-578T = tested on: Hs-578T
MDA-MB-435 = tested on: MDA-MB-435
BT-549 = tested on: BT-549
OVCAR-3 = tested on: OVCAR-3
HOP-62 = tested on: HOP-62
MDA-N = tested on: MDA-N
HCT-15 = tested on: HCT-15
OVCAR-4 = tested on: OVCAR-4
SN12C = tested on: SN12C
SK-MEL-28 = tested on: SK-MEL-28
DU-145 = tested on: DU-145
HCC 2998 = tested on: HCC 2998

Compound: COc1cccc2c1CCc1c(-c3ccc(F)cc3)cc(-c3ccc4ccccc4n3)nc1-2
- GI50 (SF-268): > 100 µM (inactive)
- GI50 (EKVX): > 100 µM (inactive)
- GI50 (MDA-MB-231): > 100 µM (inactive)
- GI50 (OVCAR-5): > 100 µM (inactive)
- GI50 (SK-OV-3): > 100 µM (inactive)
- GI50 (UACC-62): > 100 µM (inactive)
- GI50 (UO-31): > 100 µM (inactive)
- GI50 (SF-539): > 100 µM (inactive)
- GI50 (NCI/ADR-RES): > 100 µM (inactive)
- GI50 (MOLT-4): > 100 µM (inactive)
- GI50 (HCT-116): > 100 µM (inactive)
- GI50 (NCI-H226): > 100 µM (inactive)
- GI50 (ACHN): > 100 µM (inactive)
- GI50 (UACC-257): > 100 µM (inactive)
- GI50 (SNB-75): > 100 µM (inactive)
- GI50 (OVCAR-8): > 100 µM (inactive)
- GI50 (SK-MEL-2): > 100 µM (inactive)
- GI50 (RXF 393): > 100 µM (inactive)
- GI50 (SW-620): > 100 µM (inactive)
- GI50 (NCI-H23): > 100 µM (inactive)
- GI50 (A549): > 100 µM (inactive)
- GI50 (SF-295): > 100 µM (inactive)
- GI50 (RPMI-8226): > 100 µM (inactive)
- GI50 (K562): > 100 µM (inactive)
- GI50 (CAKI-1): > 100 µM (inactive)
- GI50 (IGROV-1): > 100 µM (inactive)
- GI50 (T47D): > 100 µM (inactive)
- GI50 (A498): > 100 µM (inactive)
- GI50 (SR): > 100 µM (inactive)
- GI50 (786-0): > 100 µM (inactive)
- GI50 (Malme-3M): > 100 µM (inactive)
- GI50 (COLO 205): > 100 µM (inactive)
- GI50 (HT-29): > 100 µM (inactive)
- GI50 (M14): > 100 µM (inactive)
- GI50 (HOP-92): > 100 µM (inactive)
- GI50 (SK-MEL-5): > 100 µM (inactive)
- GI50 (SNB-19): > 100 µM (inactive)
- GI50 (LOX IMVI): > 100 µM (inactive)
- GI50 (PC-3): > 100 µM (inactive)
- GI50 (TK-10): > 100 µM (inactive)
- GI50 (U-251): > 100 µM (inactive)
- GI50 (KM12): > 100 µM (inactive)
- GI50 (CCRF-CEM): > 100 µM (inactive)
- GI50 (MCF7): > 100 µM (inactive)
- GI50 (NCI-H522): > 100 µM (inactive)
- GI50 (NCI-H460): > 100 µM (inactive)
- GI50 (Hs-578T): > 100 µM (inactive)
- GI50 (MDA-MB-435): > 100 µM (inactive)
- GI50 (BT-549): > 100 µM (inactive)
- GI50 (OVCAR-3): > 100 µM (inactive)
- GI50 (HOP-62): > 100 µM (inactive)
- GI50 (MDA-N): > 100 µM (inactive)
- GI50 (HCT-15): > 100 µM
- GI50 (OVCAR-4): > 100 µM (inactive)

Compound: O=C(/C=C/c1ccc(-c2ccccc2)cc1)NCc1ccc(C(=O)NCCc2ccccc2)cc1
- GI50 (SF-268): > 100 µM (inactive)
- GI50 (EKVX): > 100 µM (inactive)
- GI50 (MDA-MB-231): 38.1 µM (inactive)
- GI50 (OVCAR-5): > 100 µM (inactive)
- GI50 (SK-OV-3): > 100 µM (inactive)
- GI50 (UACC-62): > 100 µM (inactive)
- GI50 (UO-31): > 100 µM (inactive)
- GI50 (SF-539): 12.3 µM (inactive)
- GI50 (SN12C): > 100 µM (inactive)
- GI50 (NCI/ADR-RES): > 100 µM (inactive)
- GI50 (MOLT-4): 96.6 µM (inactive)
- GI50 (HCT-116): 34.4 µM (inactive)
- GI50 (NCI-H226): > 100 µM (inactive)
- GI50 (ACHN): > 100 µM (inactive)
- GI50 (UACC-257): > 100 µM (inactive)
- GI50 (SNB-75): 49.3 µM (inactive)
- GI50 (OVCAR-8): 36.2 µM (inactive)
- GI50 (SK-MEL-2): > 100 µM (inactive)
- GI50 (RXF 393): 24.5 µM (inactive)
- GI50 (SW-620): > 100 µM (inactive)
- GI50 (NCI-H23): > 100 µM (inactive)
- GI50 (SK-MEL-28): > 100 µM (inactive)
- GI50 (DU-145): > 100 µM (inactive)
- GI50 (A549): > 100 µM (inactive)
- GI50 (SF-295): > 100 µM (inactive)
- GI50 (RPMI-8226): > 100 µM (inactive)
- GI50 (K562): 88.5 µM (inactive)
- GI50 (CAKI-1): > 100 µM (inactive)
- GI50 (IGROV-1): > 100 µM (inactive)
- GI50 (T47D): > 100 µM (inactive)
- GI50 (A498): > 100 µM (inactive)
- GI50 (SR): 44.8 µM (inactive)
- GI50 (786-0): 59.2 µM (inactive)
- GI50 (Malme-3M): 31.6 µM (inactive)
- GI50 (COLO 205): > 100 µM (inactive)
- GI50 (HT-29): 28.1 µM (inactive)
- GI50 (M14): > 100 µM (inactive)
- GI50 (HOP-92): 54.6 µM (inactive)
- GI50 (SK-MEL-5): > 100 µM (inactive)
- GI50 (SNB-19): > 100 µM (inactive)
- GI50 (LOX IMVI): 41.1 µM (inactive)
- GI50 (PC-3): > 100 µM (inactive)
- GI50 (TK-10): > 100 µM (inactive)
- GI50 (U-251): 65.3 µM (inactive)
- GI50 (KM12): > 100 µM (inactive)
- GI50 (CCRF-CEM): 18.5 µM (inactive)
- GI50 (MCF7): 25.4 µM (inactive)
- GI50 (NCI-H522): > 100 µM (inactive)
- GI50 (NCI-H460): > 100 µM (inactive)
- GI50 (MDA-MB-435): > 100 µM (inactive)
- GI50 (BT-549): > 100 µM (inactive)
- GI50 (HCC 2998): > 100 µM (inactive)
- GI50 (OVCAR-3): > 100 µM (inactive)
- GI50 (HOP-62): 60.8 µM (inactive)
- GI50 (MDA-N): > 100 µM (inactive)
- GI50 (HCT-15): > 100 µM
- GI50 (OVCAR-4): > 100 µM (inactive)

Compound: CC1(C(=O)O)CCC(C(=O)O)C(C)(C)O1 (centres undefined)
- GI50 (SF-268): > 100 µM (inactive)
- GI50 (EKVX): > 100 µM (inactive)
- GI50 (OVCAR-5): > 100 µM (inactive)
- GI50 (SK-OV-3): > 100 µM (inactive)
- GI50 (UACC-62): > 100 µM (inactive)
- GI50 (UO-31): > 100 µM (inactive)
- GI50 (SF-539): > 100 µM (inactive)
- GI50 (SN12C): > 100 µM (inactive)
- GI50 (NCI/ADR-RES): > 100 µM (inactive)
- GI50 (MOLT-4): > 100 µM (inactive)
- GI50 (HCT-116): > 100 µM (inactive)
- GI50 (NCI-H226): > 100 µM (inactive)
- GI50 (ACHN): > 100 µM (inactive)
- GI50 (UACC-257): > 100 µM (inactive)
- GI50 (SNB-75): > 100 µM (inactive)
- GI50 (OVCAR-8): > 100 µM (inactive)
- GI50 (SK-MEL-2): > 100 µM (inactive)
- GI50 (RXF 393): > 100 µM (inactive)
- GI50 (SW-620): > 100 µM (inactive)
- GI50 (NCI-H23): > 100 µM (inactive)
- GI50 (SK-MEL-28): > 100 µM (inactive)
- GI50 (DU-145): > 100 µM (inactive)
- GI50 (A549): > 100 µM (inactive)
- GI50 (SF-295): > 100 µM (inactive)
- GI50 (RPMI-8226): > 100 µM (inactive)
- GI50 (K562): > 100 µM (inactive)
- GI50 (CAKI-1): > 100 µM (inactive)
- GI50 (IGROV-1): > 100 µM (inactive)
- GI50 (T47D): > 100 µM (inactive)
- GI50 (Malme-3M): > 100 µM (inactive)
- GI50 (COLO 205): > 100 µM (inactive)
- GI50 (HT-29): > 100 µM (inactive)
- GI50 (M14): > 100 µM (inactive)
- GI50 (HOP-92): > 100 µM (inactive)
- GI50 (SK-MEL-5): > 100 µM (inactive)
- GI50 (SNB-19): > 100 µM (inactive)
- GI50 (LOX IMVI): > 100 µM (inactive)
- GI50 (PC-3): > 100 µM (inactive)
- GI50 (TK-10): > 100 µM (inactive)
- GI50 (U-251): > 100 µM (inactive)
- GI50 (KM12): > 100 µM (inactive)
- GI50 (CCRF-CEM): > 100 µM (inactive)
- GI50 (MCF7): > 100 µM (inactive)
- GI50 (NCI-H522): > 100 µM (inactive)
- GI50 (NCI-H460): > 100 µM (inactive)
- GI50 (Hs-578T): > 100 µM (inactive)
- GI50 (MDA-MB-435): > 100 µM (inactive)
- GI50 (BT-549): > 100 µM (inactive)
- GI50 (HCC 2998): > 100 µM (inactive)
- GI50 (OVCAR-3): 29.2 µM (inactive)
- GI50 (HOP-62): 4.9 µM (inactive)
- GI50 (MDA-N): > 100 µM (inactive)
- GI50 (OVCAR-4): > 100 µM (inactive)
